According to patent publication US20080132481A1, “INTERLEUKIN-4 GENE EXPRESSION INHIBITORS” (AVENTIS PHARMACEUTICALS INC., priority 2002, published 2008):

Experiments:
IL-4 = test: Human primary Th2 cells, IL-4 by ELISA; assay type: cell-based; conditions: for IL-4 (% control) mean: human Th2 cells, anti-CD3/anti-CD28, 48 hr; for IC50: human primary Th2 cells activated with anti-CD3 and anti-CD28 (Table 5)
Description: Briefly, CD4^+CD45RA^+ T cells, isolated from donor peripheral blood mononuclear cells of healthy donors, are educated in the presence of anti-CD3/CD28 antibodies and various growth factors to obtain either a Th1-like or Th2-like phenotypes as determined by the known cytokine profiles of these two cell types.
(§1) Peripheral blood mononuclear cells (PBMC) are prepared from human blood by Ficoll-Hypacque (Pharmacia). The cells are washed two times in Hanks balanced salt solution (HBSS) and counted.
Naïve T cells (CD4^+/CD45RA) are prepared by negative selection method using following antibodies and Dynabeads: anti-CD8, anti-HLA-DR, (where HLA means human leucocyte antigen) anti-CD14, anti-CD16, anti-CD19, anti-CD45RO antibodies (all from R&D Systems, 1-2 μg/ml) are added to the cells, and the cells are kept on ice for 30 min. The cells are washed two times in HBSS, and goat anti-mouse Ig-beads, (bead:target ratio, 5:1) are added. The cells and beads are slowly rotated at 4° C. for 20 min. (following the protocol supplied from Dynal). The supernatant is removed and fresh goat anti-mouse Ig-beads are added to the supernatant, which is slowly rotated at 4° C. for 20 min. The cells are counted and phenotypically characterized by flow cytometric analysis.
Generation of Th1/Th2 cells: Twenty four well plates are coated with 300 μL anti-CD3 Ab (10 μg/ml, in PBS 1-2 h at 37° C. or overnight at 4° C.), and washed two times with PBS. […]/CD45RA^+ cells at a density of 10^6/ml in RPMI, is prepared and added to RPMI medium containing 10% Hyclone serum/glutamine and 1-2 μg/ml anti-CD28 Ab. The cells are split in two aliquots. For Th1 cells: anti-IL-4 Ab (1-2 μg/ml), IFN-γ (1 μg/ml, or 5000 units/ml) are added to the wells. For Th2 cells: IL-4 (100-200 ng/ml), anti-IFN-γ neutralizing Ab (1-2 μg/ml), anti-IL-12 neutralizing Ab (1-2 μg/ml) are added into the wells. The cells are incubated for 2-3 days at 37° C. The cells are transferred to fresh wells and grown in 200 units/ml IL-2 for 2 weeks by feeding them every other day with IL-2 containing medium and splitting the cultures 1:2 or 1:3 as needed. The degree of polarization is determined by intracellular staining of cells with anti-IFN-γ and anti-IL-4 antibodies from Pharmingen, and using flow cytometry from Becton Dickinson (BD), according to manufacturers description. The cells are stimulated with PHA and alloantigens at day 14 and 28 as described below. Eight days after the second allostimulation the cells can be used for compound screening or frozen for future use. For compound testing, large quantities of Th1 and Th2 cells derived from a given donor (NYTh1 and NYTh2) were expanded and frozen as aliquots in liquid nitrogen. The cells are thawed and cultured as and when needed. The thawed cells are stimulated with alloantigen/PHA combination. The cells are used for compound screening after 8-10 days in culture.
Re-stimulation by allogeneic cells: Human PBMCs, to be used as alloantigens, are isolated from freshly drawn blood by Ficoll separation. Cells are resuspended in medium containing 50 μg/ml mitomycin C and incubated for 40 minutes at 37° C. and then washed extensively to remove all of the Mitomycin C. Cells are counted and diluted to a final concentration of 2×10^6/ml in medium containing 10 μg/ml PHA and 200 units/ml IL-2.

Swiss 3T3 fibroblasts = test: In vitro cytotoxicity assay on contact inhibited 3T3 fibroblasts (MTS); assay type: cell-based
Description: Other toxicity assays may be used.
Any compound killing 3T3 fibroblast cells was omitted from further studies.
Contact inhibited Swiss 3T3 fibroblasts are purchased from ATCC.
All compound dilutions are assayed in triplicate. […] Cells are returned to the incubator for 2 days.
Media is added to blank wells for background calculations.
Note that starting concentration of CsA was 1 μM.

[1] = test system: sheep allergic to Ascaris suum; test: Sheep asthma model (Ascaris suum antigen challenge); assay type: in vivo
Description: Briefly, transpulmonary pressure, pulmonary resistance (RL), specific lung resistance (SRL airway hyperreactivity, airway responsiveness, are determined.
Venous blood samples (˜5 ml) are obtained from a peripheral leg vein or the jugular vein for pharmacokinetic data. Measurement of Airway Mechanics: The unsedated sheep are restrained in a cart in the prone position with their heads immobilized. After topical anesthesia of the nasal passages with 2% lidocaine solution, a balloon catheter is advanced through one nostril into the lower esophagus. The animals are […] with a cuffed endotracheal tube through the other nostril using a flexible fiberoptic bronchoscope as a guide. (The cuff of the endotracheal tube is inflated only for the measurement of airway mechanics and during aerosol challenges to prevent undue discomfort. This procedure has no effect on airway mechanics). Pleural pressure is estimated with the esophageal balloon catheter (filled with one ml of air) which is positioned 5-10 cm from the gastroesophageal junction. In this position the end expiratory pleural pressure ranges between −2 and −5 cm H20. Once the balloon is placed, it is secured so that it remains in position for the duration of the experiment. Lateral pressure in the trachea is measured with a sidehole catheter (inner dimension, 2.5 mm) advanced through and positioned distal to the tip of the endotracheal tube. Transpulmonary pressure, the difference between tracheal and pleural pressure, is measured with a differential pressure transducer catheter system. […] The signals of flow and transpulmonary pressure is recorded on an oscilloscope recorder which is linked to a computer for on-line calculation of RL from transpulmonary pressure, respiratory volume (obtained by digital integration) and flow. […] Immediately after the measurement of RL, thoracic gas volume (Vtg) is measured in a constant volume body plethysmograph to obtain specific lung resistance (SRL=RL·Vtg) in L×cm H20/LPS. […]

IL-5 = test: Human primary Th2 cells, IL-5 by ELISA; assay type: cell-based; conditions: human primary Th2 cells activated with anti-CD3 and anti-CD28 (Table 5)
Text: (§2) The methods described herein permit polarization of primary human peripheral blood cells into Th1 and Th2 cells and generation of sufficiently large quantities of Th1 and Th2 cells, e.g., billions of cells, to allow drug screening. Briefly, CD4^+CD45RA^+ T cells, isolated from donor peripheral blood mononuclear cells of healthy donors, are educated in the presence of anti-CD3/CD28 antibodies and various growth factors to obtain either a Th1-like or Th2-like phenotypes as determined by the known cytokine profiles of these two cell types. Primary human Th1 cells secreted IFN-γ and IL-2 cytokines while primary human Th2 cells secreted IL-4, IL-5, IL-13 and basal amounts of IFN-γ that are measurable by enzyme linked immuno absorption assay (ELISA).
as §1
(§3) Naïve T cells (CD4^+/CD45RA) are prepared by negative selection method using following antibodies and Dynabeads: anti-CD8, anti-HLA-DR, (where HLA means human leucocyte antigen) anti-CD14, anti-CD16, anti-CD19, anti-CD45RO antibodies (all from R&D Systems, 1-2 μg/ml) are added to the cells, and the cells are kept on ice for 30 min. […] The cells are counted and phenotypically characterized by flow cytometric analysis. […]

IL-13 = test: Human primary Th2 cells, IL-13 by ELISA; assay type: cell-based; conditions: human primary Th2 cells activated with anti-CD3 and anti-CD28 (Table 5)
Text: as §2, §1, §3

IFN-γ = test: Human primary Th2 cells, IFN-γ by ELISA; assay type: cell-based; conditions: human primary Th2 cells activated with anti-CD3 and anti-CD28 (Table 5)
Text: as §2, §1, §3

Human Th2 cells = test: Human primary Th2 cells, proliferation (MTS viability test); assay type: cell-based; conditions: human primary Th2 cells activated with anti-CD3 and anti-CD28 (Table 5); read-out: Prolif. IC50
Text: as §2, §1, §3

ovalbumin specific IgE = test: OVA induced IgE in mice; assay type: in vivo, mouse; conditions: serum day 15, 10 mg/kg intraperitoneally once a day from day 6 to day 14, vehicle 150.8
Description: Table 10 summarizes effects of 3-(4-pyridinylamino)-1H-indole-2-carboxylic acid on OVA induced IgE in mice. Female mice (5-8 week age, Balb/c, Charles River) were used in this study. Ovalbumin (Sigma) was adsorbed to Aluminum Hydroxide Adsorptive Gel, Inter, and injected 10 μg/0.2 ml/mouse intraperitoneally on experimental day 0 and day 7. Dexamethasone (Sigma) and 3-(4-pyridinylamino)-1H-indole-2-carboxylic acid (Example 28) were in 10% HPCD (Hydroxypropyl-β-Cyclodextrin, Aldrich). Dexamethasone (10 mg/kg), 3-(4-pyridinylamino)-1H-indole-2-carboxylic acid (Example 28) (3 and 10 mg/kg) and 10% HPCD (0.2 ml/mouse) are injected into mice intraperitoneally once a day from day 6 to day 14. They were bled at day 15. Serum ovalbumin specific IgE levels were determined by standard ELISA using a goat anti-mouse IgE antibody labeled with alkaline phosphatase. The anti-OVA titers were determined by malting serial dilutions of the test sera and comparing with vehicle control.

[2] = 3 mg/kg aerosol 30 min before antigen challenge, 2 sheep per group (FIG. 3A)

Compound: O=C(O)c1[nH]c2ccccc2c1Nc1ccncc1 [Example 28, 3-(4-Pyridinylamino)-1H-indole-2-carboxylic acid]
- IL-4 (% control) mean (IL-4; 0.01 μM): 102.15 % control
- IL-4 (% control) mean (IL-4; 0.03 μM): 65.30 % control
- IL-4 (% control) mean (IL-4; 0.1 μM): 59.75 % control
- IL-4 (% control) mean (IL-4; 0.3 μM): 45.00 % control
- IL-4 (% control) mean (IL-4; 1 μM): 42.55 % control
- IL-4 (% control) mean (IL-4; 3 μM): 36.40 % control
- IL-4 (% control) mean (IL-4; 10 μM): 30.80 % control
- toxic effects on quiescent 3T3 cells (in words) (Swiss 3T3 fibroblasts): no toxic effects
- antigen-induced early bronchial response: acute increase in specific lung resistance (SRL) [1, 2]: did not affect
- antigen-induced late bronchial response (SRL) [1, 2]: blocked the late response
- post challenge airway responsiveness (decrease of PC400 after antigen challenge) ([1]; 3 mg/kg, 2 sheep (FIG. 3B)): prevented this effect

Compound: CCOC(=O)c1[nH]c2cc(Cl)cc(Cl)c2c1N(C)C(=O)c1ccccc1 [Example 83, 3-((Benzoyl)methylamino)-4,6-dichloro-1H-indole-2-carboxylic acid ethyl ester]
- IC50 (IL-4): 1 µM
- IC50 (IL-5): > 10 µM
- IC50 (IL-13): > 10 µM
- IC50 (IFN-γ): > 10 µM
- IC50 (Human Th2 cells): > 10 µM

Compound: O=C(O)c1[nH]c2cc(Cl)ccc2c1NC(=O)C1CCNCC1 [Example 82, 3-((4-Piperidineacyl)amino)-6-chloro-1H-indole-2-carboxylic acid]
- IC50 (IL-4): 0.15 µM
- IC50 (IL-5): > 10 µM
- IC50 (IL-13): > 10 µM
- IC50 (IFN-γ): > 10 µM
- IC50 (Human Th2 cells): > 10 µM

Compound: C[C@@H]1C[C@H]2[C@@H]3CCC4=CC(=O)C=C[C@]4(C)[C@@]3(F)[C@@H](O)C[C@]2(C)[C@@]1(O)C(=O)CO [Dexamethasone]
- Anti-OVA IgE (ovalbumin specific IgE): 27.4
